Laboratory results: the supplement of paper PMC10307832

Experiments:
Experiment in all cases: relative viability (nuclei count vs DMSO), 5 days (fraction); higher = more cells survive
EHT 1864 + Crizotinib = compound: C1COCCN1CC2=CC(=O)C(=CO2)OCCCCCSC3=C4C=CC(=CC4=NC=C3)C(F)(F)F [EHT 1864] + C[C@@H](Oc1cc(-c2cnn(C3CCNCC3)c2)cnc1N)c1c(Cl)ccc(F)c1Cl [Crizotinib] (partner 1 µM)
Method in brief: (§1)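 Medians of duplicate plates are given as relative viability. That measure is the nuclei count in treated wells divided by the count in vehicle wells. Counts were taken on 4× images of lung cancer cell lines in 1536-well plates, 5 days after pin-tool dosing the day after seeding with one drug alone or a fixed anchor-drug dose plus five library-drug doses (not always all listed) in √10 steps.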

EHT 1864 + Phenformin = compound: C1COCCN1CC2=CC(=O)C(=CO2)OCCCCCSC3=C4C=CC(=CC4=NC=C3)C(F)(F)F [EHT 1864] + N=C(N)NC(=N)NCCc1ccccc1 [Phenformin] (partner 250 µM)
Method in brief: as §1

EHT 1864 + Navitoclax = compound: C1COCCN1CC2=CC(=O)C(=CO2)OCCCCCSC3=C4C=CC(=CC4=NC=C3)C(F)(F)F [EHT 1864] + CC1(C)CCC(c2ccc(Cl)cc2)=C(CN2CCN(c3ccc(C(=O)NS(=O)(=O)c4ccc(N[C@H](CCN5CCOCC5)CSc5ccccc5)c(S(=O)(=O)C(F)(F)F)c4)cc3)CC2)C1 [Navitoclax] (partner 0.5 µM)
Method in brief: as §1

EHT 1864 + Decitabine = compound: C1COCCN1CC2=CC(=O)C(=CO2)OCCCCCSC3=C4C=CC(=CC4=NC=C3)C(F)(F)F [EHT 1864] + Nc1ncn([C@H]2C[C@H](O)[C@@H](CO)O2)c(=O)n1 [Decitabine] (partner 2 µM)
Method in brief: as §1

Cell Line	relative viability (EHT 1864 + Crizotinib; first compound 0.04 µM)	relative viability (EHT 1864 + Crizotinib; first compound 0.1265 µM)	relative viability (EHT 1864 + Crizotinib; first compound 0.4 µM)	relative viability (EHT 1864 + Crizotinib; first compound 1.265 µM)	relative viability (EHT 1864 + Crizotinib; first compound 4 µM)	relative viability (EHT 1864 + Phenformin; first compound 0.04 µM)	relative viability (EHT 1864 + Phenformin; first compound 0.1265 µM)	relative viability (EHT 1864 + Phenformin; first compound 0.4 µM)	relative viability (EHT 1864 + Phenformin; first compound 1.265 µM)	relative viability (EHT 1864 + Phenformin; first compound 4 µM)	relative viability (EHT 1864 + Navitoclax; first compound 0.04 µM)	relative viability (EHT 1864 + Navitoclax; first compound 0.1265 µM)	relative viability (EHT 1864 + Navitoclax; first compound 0.4 µM)	relative viability (EHT 1864 + Navitoclax; first compound 1.265 µM)	relative viability (EHT 1864 + Navitoclax; first compound 4 µM)	relative viability (EHT 1864 + Decitabine; first compound 0.04 µM)	relative viability (EHT 1864 + Decitabine; first compound 0.1265 µM)	relative viability (EHT 1864 + Decitabine; first compound 0.4 µM)	relative viability (EHT 1864 + Decitabine; first compound 1.265 µM)	relative viability (EHT 1864 + Decitabine; first compound 4 µM)
201T	1.05	1.03	1	0.984	1	0.471	0.423	0.434	0.483	0.445	1.27	1.2	1.22	1.15	1.16	0.86	0.874	0.863	0.8	0.778
A549	0.659	0.739	0.742	0.669	0.601	0.267	0.14	0.186	0.0995	0.168	1.16	1.2	0.952	1.18	0.912	0.263	0.213	0.257	0.284	0.323
A-427	0.949	0.945	0.817	0.8	0.811	0.343	0.309	0.282	0.285	0.265	1.15	0.941	0.823	0.911	0.884	0.566	0.572	0.548	0.564	0.59
ABC-1	1.35	1.03	0.991	0.733	0.759	0.24	0.258	0.208	0.273	0.218	–	–	–	–	–	1.35	0.91	1.15	0.881	0.901
BEN	0.979	0.775	0.753	0.885	0.964	0.251	0.275	0.282	0.263	0.247	0.0831	0.0599	0.0547	0.075	0.238	0.775	0.727	0.767	0.764	0.702
CAL-12T	0.722	0.635	0.663	0.653	0.831	0.582	0.574	0.662	0.583	0.596	1.03	1.07	1.04	1.19	1.22	–	–	–	–	–
COR-L23	0.684	0.559	0.59	0.552	0.596	0.53	0.368	0.484	0.5	0.491	1.01	0.901	1.01	0.979	0.932	0.523	0.343	0.473	0.475	0.307
COR-L 105	0.614	0.732	1.05	0.774	0.74	0.535	0.427	0.602	0.536	0.535	0.883	0.783	0.801	0.707	0.723	0.781	0.578	0.574	0.786	0.637
Calu-6	0.763	0.767	0.676	0.748	0.733	–	–	–	–	–	0.816	0.7	0.876	0.757	0.764	–	–	–	–	–
ChaGo-K-1	1.14	1.15	1.12	–	1.01	0.497	0.427	0.544	0.48	0.463	1.07	0.938	0.802	–	1.07	0.584	0.501	0.527	0.477	0.531
EBC-1	0.18	0.181	0.219	0.205	0.196	–	–	–	–	–	0.381	0.329	0.449	0.431	0.429	–	–	–	–	–
EKVX	1.05	0.721	0.857	0.947	0.855	0.23	0.235	0.223	0.252	0.245	0.937	0.906	0.88	0.857	1.03	0.372	0.333	0.317	0.329	0.381
EMC-BAC-2	0.752	0.616	0.72	0.749	0.817	0.549	0.48	0.558	0.502	0.486	1.09	1.09	1.12	1.13	1.2	0.857	0.935	1	1.04	0.997
EPLC-272H	0.928	0.861	0.855	0.915	1.01	0.33	0.34	0.375	0.36	0.248	1.11	1.05	1.18	1.28	1.24	0.406	0.359	0.405	0.355	0.396
H3255	0.683	0.65	0.938	0.817	1	0.383	0.394	0.424	0.36	0.399	0.561	0.506	0.457	0.441	0.448	0.585	0.548	–	0.573	0.677
HARA	0.964	1	1.08	1.04	0.902	0.396	0.483	0.466	0.351	0.416	1.11	1.15	1.1	1.19	0.996	0.532	–	0.563	0.564	0.425
HCC-15	0.752	0.635	0.801	0.82	0.821	0.491	–	0.461	0.383	0.52	0.732	0.576	0.682	0.649	0.736	0.735	–	0.62	0.624	0.624
HCC-44	0.799	0.751	0.693	0.653	0.858	0.193	0.13	0.203	0.218	0.221	1.02	0.951	0.905	0.904	1.08	0.951	0.797	0.914	0.981	0.987

Cell Line	relative viability (EHT 1864 + Crizotinib; first compound 0.04 µM)	relative viability (EHT 1864 + Crizotinib; first compound 0.1265 µM)	relative viability (EHT 1864 + Crizotinib; first compound 0.4 µM)	relative viability (EHT 1864 + Crizotinib; first compound 1.265 µM)	relative viability (EHT 1864 + Crizotinib; first compound 4 µM)	relative viability (EHT 1864 + Phenformin; first compound 0.04 µM)	relative viability (EHT 1864 + Phenformin; first compound 0.1265 µM)	relative viability (EHT 1864 + Phenformin; first compound 0.4 µM)	relative viability (EHT 1864 + Phenformin; first compound 1.265 µM)	relative viability (EHT 1864 + Phenformin; first compound 4 µM)	relative viability (EHT 1864 + Navitoclax; first compound 0.04 µM)	relative viability (EHT 1864 + Navitoclax; first compound 0.1265 µM)	relative viability (EHT 1864 + Navitoclax; first compound 0.4 µM)	relative viability (EHT 1864 + Navitoclax; first compound 1.265 µM)	relative viability (EHT 1864 + Navitoclax; first compound 4 µM)	relative viability (EHT 1864 + Decitabine; first compound 0.04 µM)	relative viability (EHT 1864 + Decitabine; first compound 0.1265 µM)	relative viability (EHT 1864 + Decitabine; first compound 0.4 µM)	relative viability (EHT 1864 + Decitabine; first compound 1.265 µM)	relative viability (EHT 1864 + Decitabine; first compound 4 µM)
HCC-78	0.349	0.32	0.353	0.342	0.319	0.635	0.604	0.694	0.746	0.733	0.618	0.746	0.693	0.685	1.1	0.735	0.726	0.577	0.713	0.789
HCC-366	0.434	–	0.423	0.554	0.487	0.616	0.538	0.593	0.511	0.585	1.14	–	1.01	0.995	1.14	0.338	0.324	0.331	0.333	0.326
IA-LM	1.01	–	0.754	–	0.684	–	–	–	–	–	0.697	0.653	0.775	0.803	0.569	–	–	–	–	–
LCLC-103H	1.15	1.03	1.02	1.05	1.01	0.356	0.271	0.357	0.33	0.391	–	–	–	–	–	0.734	0.67	0.744	0.708	0.66
NCI-H358	0.604	–	0.616	0.517	0.579	0.328	0.338	0.367	0.345	0.303	–	–	–	–	–	0.238	0.241	0.212	0.263	0.192
NCI-H522	–	–	–	–	–	0.538	0.613	0.605	0.571	0.4	–	–	–	–	–	0.592	0.685	0.709	0.702	0.703
NCI-H650	0.71	–	0.805	0.7	0.698	0.403	0.455	0.48	0.447	0.459	–	–	–	–	–	0.372	0.312	0.356	0.356	0.34
NCI-H661	1.03	1.03	0.882	0.85	0.879	0.339	0.273	0.301	0.302	0.269	–	–	–	–	–	0.609	0.527	0.581	0.576	0.514
NCI-H1299	0.928	0.975	0.95	0.925	0.901	–	–	–	–	–	1.02	1.02	1.05	0.986	0.984	–	–	–	–	–
NCI-H1395	–	–	–	–	–	0.518	0.422	0.45	0.474	0.431	1.12	1.02	1.18	0.967	0.875	0.722	0.676	0.709	0.657	0.673
NCI-H1563	0.89	0.883	0.916	0.827	0.656	0.672	0.64	0.675	0.677	0.685	–	–	–	–	–	–	–	–	–	–
NCI-H1648	–	–	–	–	–	–	–	–	–	–	–	–	–	–	–	0.564	–	0.471	0.502	0.643
NCI-H1703	0.69	0.534	0.545	0.598	0.487	–	–	–	–	–	1.13	0.968	0.956	0.849	0.749	–	–	–	–	–
NCI-H1793	–	–	–	–	–	0.301	–	0.383	–	0.392	–	0.366	0.485	0.364	0.387	0.47	0.466	0.506	0.56	0.614
NCI-H2228	0.523	0.479	0.509	0.341	0.361	0.37	0.232	0.345	0.288	0.52	1.08	0.847	0.755	0.836	0.827	–	–	–	–	–
NCI-H2342	–	–	–	–	–	0.546	0.52	0.621	0.523	0.678	–	–	–	–	–	0.712	0.562	0.787	0.751	0.763
SW 900	–	–	–	–	–	0.435	–	0.569	0.521	0.597	–	–	–	–	–	0.449	–	0.419	0.46	0.504
